Assays:
Format in all cases: cell-based
Hela cells [1] = assay: Transfection of Hela cell line, DNA vectors; settings: 75 ng plasmid DNA, GFP cells / total cells
Method: 1. The compound (0.01 mmol) prepared in Example 1 was dissolved in 1 mL of anhydrous ethanol. After ultrasonically dissolved, 10 μL of the resultant amino lipid solution in ethanol was taken and mixed with 5 μL of DOPE solution in ethanol (0.01 m), and then to the obtained mixture was added 35 μL of 0.2M sodium acetate buffer (pH 5.6), and 50 μL of liposome solution was prepared by vortex at a constant rotating speed for 30 s. 4 μL was taken from the 50 μL liposome solution and added to 46 μL of 0.02M sodium acetate buffer (pH 5.6), and the final liposome solution was formed by vortex at a constant rotating speed for 30 s. 5 μL was taken from the final liposome solution and mixed with 75 ng plasmid DNA (psin-EGFP-IRES-Puro, Clontech) dissolved in 5 μL of 0.02 M sodium acetate buffer, and was allowed to stay at room temperature for 30 min to form a lipid/DNA transfection complex.
2. 10 μL of the lipid/DNA transfection complex was incubated at room temperature for 30 min, followed by addition of 90 μL of fresh resuspended cells (3-5×10^4 cells) and mixing with a pipette. 100 μL of cells+lipid/DNA complex was transferred to separate wells of a 96-well culture plate immediately, and placed in an incubator containing 5% CO2 at 37° C.
3. Hoechst33258 (Invitrogen) was added at a final concentration of 0.2 μg/mL to the cells 20 to 24 hours after initial cell transfection, and cultured in darkness at 37° C. for 15 min. Afterwards, the cells were washed once with a PBS solution, and then added with medium for culture for 20 to 24 h.
4. The cells were placed in a high-throughput confocal microscope (Molecular Devices ImageXpress), and four visual fields of the image of the cells were captured for each well, and images at three laser wavelengths were captured for each sample: bright field images of cells (FIG. 2(a) and FIG. 2(b)), Hoechst-staining images showing total nuclei (FIG. 2(c) and FIG. 2(d)) and GFP images showing success in transfection with the plasmid DNA and the expression of GFP (FIG. 2(e) and FIG. 2(f)). MetaXpress software was used to separately count the cells in the Hoechst-staining images and GFP images, and then the number of cells expressing GFP was divided by the total number of nuclei to give the absolute cell transfection efficiency. The absolute transfection efficiency was calculated as follows: […]
(§1) Cell line: Hela cells (ATCC 35241)
(§2) Medium: DMEM supplemented with 10% fetal bovine serum (Invitrogen)
(§3) Screening: cell transfection on 96-well plates
(§4) Detection (readout): percentage of the number of GFP fluorescent cells relative to the total number of cells (the total number of cells was determined using nucleus dye Hoechst). Lipofectamine2000 (Invitrogen) was used as the positive control, according to the manufacturer's instructions.
(§5) Method: the experimental method was basically the same with Example 4.

Hela cells [2] = assay: Transfection of Hela cell line, mRNA vectors; settings: 50 ng EGFP mRNA per well
Method: as §1, §2, §3
as §4, with “Hoechst). A commercially available liposome transfection reagent” for “Hoechst).”, “control group,” for “control,”
Method: the experimental method was basically the same with Example 4, and the mass of EGFP mRNA for transfection was 50 ng per well.

MCF7 cells [3] = assay: Transfection of MCF7 cell line, DNA vectors; set-up: concentration or dose not given beside the values; settings: plasmid DNA, GFP cells / total cells
Method: (§6) Cell line: MCF7 cells (ATCC HTB-22)
Medium DMEM supplemented with […] fetal bovine serum
as §3
Detection (readout): percentage of the number of GFP fluorescent cells relative to the total number of cells (the total number of cells was determined using nucleus dye Hoechst). Lipofectamine2000 was used as the positive control, according to the manufacturer's instructions.
as §5

MCF7 cells [4] = assay: Transfection of MCF7 cell line, mRNA vectors; settings: 50 ng EGFP mRNA per well
Method: as §6
Medium: DMEM supplemented with 10 fetal bovine serum (Invitrogen)
as §3
Detection (readout): percentage of the number of GFP fluorescent cells relative to the total number of cells (the total number of cells was determined using nucleus dye Hoechst). Lipofectamine2000 (Invitrogen) was used as the positive control.
Method: the experimental method was basically the same with Example 4, and the mass of EGFP mRNA (TriLink) for transfection was 50 ng per well.

HEK293 cells [5] = assay: Preliminary screening as DNA vectors, GFP transfection of HEK293 cells; settings: HEK293 cells; lipid/DOPE liposome with 75 ng plasmid DNA (psin-EGFP-IRES-Puro); number of cells expressing GFP divided by total number of nuclei (Hoechst)
Summary of the method: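 Lipid + DOPE liposomes (NaOAc, pH 5.6) complexed w/ 75 ng psin-EGFP-IRES-Puro, 30 min RT; added to 3-5×10^4 HEK293/well, 37° C. Hoechst 0.2 μg/mL at 20-24 h, imaged after further 20-24 h. Efficiency = GFP+ cells / total nuclei.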

HEK293 cells [6] = assay: Preliminary screening as mRNA vectors, EGFP mRNA transfection of HEK293 cells; settings: HEK293 cells, 96-well plates, EGFP mRNA 50 ng per well; percentage of GFP fluorescent cells relative to total number of cells (Hoechst)
Summary of the method: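 Each well of HEK293 cells received 50 ng of EGFP mRNA. Efficiency was expressed as percent GFP-expressing cells over Hoechst-defined total cell number.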

Compound | Absolute DNA transfection efficiency in Hela cells (Hela cells [1]) | Absolute mRNA transfection efficiency in Hela cells (Hela cells [2]) | Absolute DNA transfection efficiency in MCF7 cells (MCF7 cells [3]) | Absolute mRNA transfection efficiency in MCF7 cells (MCF7 cells [4]) | Absolute DNA transfection efficiency in HEK293 cells (HEK293 cells [5]) | Absolute mRNA transfection efficiency in HEK293 cells (HEK293 cells [6])
CCCCCCCCCCCSc1nc(NCCN2CCCC2)nc(SCCCCCCC)n1 [Compound S7S11D3] | 4.8% | 4.8% | 6.4% | 6.7% |  | 
CCCCCCCCCCCSc1nc(NCCN2CCN(C)CC2)nc(SCCCCCCC)n1 [Compound S7S11D5] | 16.8% | 16.8% | 23.3% | 16.5% |  | 
CCCCCCCCCCCSc1nc(NCCCN(C)C)nc(SCCCCCCC)n1 [Compound S7S11D6] | 14.5% | 14.5% | 38.1% | 26.1% |  | 
CCCCCCCCCCCSc1nc(NCCCN2CCOCC2)nc(SCCCCCCC)n1 [Compound S7S11D8] | 5.6% | 5.6% | 12.9% | 1.5% |  | 
CCCCCCCCCCCSc1nc(NCCCN2CCN(C)CC2)nc(SCCCCCCC)n1 [Compound S7S11D9] | 12.9% | 12.9% | 44.5% | 3.6% |  | 
CCCCCCCCCCCSc1nc(NCC2CCN(C)CC2)nc(SCCCCCCC)n1 [Compound S7S11D10] | 19.7% | 19.7% | 33.8% | 22.2% |  | 
CCCCCCCCCCCCSc1nc(NCCN2CCCC2)nc(SCCCCCCC)n1 [Compound S7S12D3] | 4.9% | 4.9% | 3.0% | 9.4% |  | 
CCCCCCCCCCCCSc1nc(NCCN2CCN(C)CC2)nc(SCCCCCCC)n1 [Compound S7S12D5] | 4.9% | 4.9% | 27.1% | 33.6% |  | 
CCCCCCCCCCCCSc1nc(NCCCN(C)C)nc(SCCCCCCC)n1 [Compound S7S12D6] | 5.8% | 5.8% | 52.1% | 19.1% |  | 
CCCCCCCCCCCCSc1nc(NCCCN2CCOCC2)nc(SCCCCCCC)n1 [Compound S7S12D8] | 5.4% | 5.4% | 11.5% | 24.0% |  | 
CCCCCCCCCCCCSc1nc(NCCCN2CCN(C)CC2)nc(SCCCCCCC)n1 [Compound S7S12D9] | 2.9% | 2.9% | 14.6% | 21.2% |  | 
CCCCCCCCCCCCSc1nc(NCC2CCN(C)CC2)nc(SCCCCCCC)n1 [Compound S7S12D10] | 10.6% | 10.6% | 44.7% | 47.5% |  | 
CCCCCCCCCCCCNc1nc(NCCN2CCCC2)nc(SCCCCCCCC)n1 [Compound S8N12D3] | 8.8% | 8.9% | 13.7% | 20.7% |  | 
CCCCCCCCCCCCNc1nc(NCCN2CCN(C)CC2)nc(SCCCCCCCC)n1 [Compound S8N12D5] | 20.8% | 20.8% | 29.2% | 19.7% |  | 
CCCCCCCCCCCCNc1nc(NCCCN(C)C)nc(SCCCCCCCC)n1 [Compound S8N12D6] | 39.3% | 39.3% | 25.5% | 22.5% |  | 
CCCCCCCCCCCCCCCSc1nc(NCCN(C)C)nc(SCCCCCCCCC)n1 [Compound S9S15D1] | 1.3% | 1.3% |  |  | 2.1% | 0.0%
CCCCCCCCCCCCCCCSc1nc(NCCN2CCOCC2)nc(SCCCCCCCCC)n1 [Compound S9S15D2] | 5.9% | 5.9% |  |  | 10.6% | 0.0%
CCCCCCCCCCCCCCCSc1nc(NCCN2CCCCC2)nc(SCCCCCCCCC)n1 [Compound S9S15D4] | 5.8% | 5.8% |  |  | 11.8% | 2.1%
CCCCCCCCCCCCCCCSc1nc(NCCN(CC)CC)nc(SCCCCCCCCC)n1 [Compound S9S15D7] | 2.8% | 2.8% |  |  | 5.0% | 1.2%
CCCCCCCCCCCCCCCCSc1nc(NCCN(C)C)nc(SCCCCCCCCC)n1 [Compound S9S16D1] | 0.0% | 0.0% |  |  | 0.0% | 0.0%
CCCCCCCCCCCCCCCCSc1nc(NCCN2CCOCC2)nc(SCCCCCCCCC)n1 [Compound S9S16D2] | 0.7% | 0.7% |  |  | 1.5% | 0.0%
CCCCCCCCCCCCCCCCSc1nc(NCCN2CCCCC2)nc(SCCCCCCCCC)n1 [Compound S9S16D4] | 6.2% | 6.2% |  |  | 12.2% | 1.2%
CCCCCCCCCCCCCCCCSc1nc(NCCN(CC)CC)nc(SCCCCCCCCC)n1 [Compound S9S16D7] | 4.2% | 4.2% |  |  | 8.4% | 1.8%
